Measured values published in patent US20070219231A1, “Quinolonecarboxylic acid compounds, preparation methods and pharmaceutical uses thereof” (priority 2005, published 2007).

How the values were obtained:
Test in all cases: MIC, two-fold plate dilution method
Type in all cases: cell-based
S. aureus ATTC 25923 = system: S. aureus ATTC 25923; parameters: unit not given here; details: S. aureus ATTC 25923, Gram-positive; Muener-Hinton medium
Text: (§1) Two-fold plate dilution method is used for determination of activity, with Muener-Hinton medium (DIFCO) as the culture medium and clinically isolated pathogenic strain, quality control strain and standard strain (provided by National Institute for the Control of Pharmaceutical and Biological Products) as test strains.

S. pneumoniae 98 = system: S. pneumoniae 98; parameters: unit not given here; details: S. pneumoniae 98, Gram-positive; Muener-Hinton medium
Text: (§2) . The pharmaceutically acceptable salts or hydrates thereof have the same antibacterial activity.
as §1

E. coli 26 = details: E. coli 26, Gram-negative; Muener-Hinton medium
Text: as §2, §1

K. pneumoniae 14 = system: K. pneumoniae 14; parameters: unit not given here; details: K. pneumoniae 14, Gram-negative; Muener-Hinton medium
Text: as §2, §1

E. coli ATTC 25922 = system: E. coli ATTC 25922; parameters: unit not given here; details: E. coli ATTC 25922, Gram-negative; Muener-Hinton medium
Text: as §2, §1

S. pneumoniae 70 = system: S. pneumoniae 70; parameters: unit not given here; details: S. pneumoniae 70, Gram-positive; Muener-Hinton medium
Text: as §2, §1

K. pneumoniae 7 = details: K. pneumoniae 7, Gram-negative; Muener-Hinton medium
Text: as §2, §1

Enterococcus 755 = details: Enterococcus 755, Gram-positive; Muener-Hinton medium
Text: as §2, §1

| Structure (SMILES) | MIC (S. aureus ATTC 25923) | MIC (S. pneumoniae 98) | MIC (E. coli 26) [g/mL] | MIC (K. pneumoniae 14) | MIC (E. coli ATTC 25922) | MIC (S. pneumoniae 70) | MIC (K. pneumoniae 7) [g/mL] | MIC (Enterococcus 755) [g/mL] |
| --- | --- | --- | --- | --- | --- | --- | --- | --- |
| Cl.O=C(O)c1cn(C2CC2)c2c(OC(F)F)c(N3C[C@@H]4CCCN[C@@H]4C3)c(F)cc2c1=O (racemic) [Embodiment 15, 1-Cyclopropyl-8-difluoromethoxyl-7-[cis-2,8-diazabicyclo[4,3,0]nonane-8-yl]-6-fluoro-1,4-dihydro-4-oxoquinoline-3-carboxylic acid hydrochloride] | 0.12 | 0.12 |  |  |  |  |  |  |
| Nc1c(F)c(N2C[C@@H]3CCCN[C@@H]3C2)c(OC(F)F)c2c1c(=O)c(C(=O)O)cn2C1CC1 (relative stereo) [Embodiment 21, 5-Amino-1-cyclopropyl-8-difluoromethoxyl-7-(cis-2,8-diazabicyclo[4,3,0]nonane-8-yl)-6-fluoro-1,4-dihydro-4-oxoquinoline-3-carboxylic acid] |  |  | <0.00 |  |  |  |  |  |
| Cl.O=C(O)c1cn(C2CC2)c2c(OC(F)F)c(N3C[C@@H]4CCCN[C@@H]4C3)c(F)cc2c1=O [Embodiment 13, 1-cyclopropyl-8-difluoromethoxyl-7-[(1S,6S)-2,8-diazabicyclo[4,3,0]nonane-8-yl]-6-fluoro-1,4-dihydro-4-oxoquinoline-3-carboxylic acid hydrochloride] |  | 0.01 | 0.01 | 0.01 | 0.01 | 0.12 | 0.01 |  |
| Cl.O=C(O)c1cn(C2CC2)c2c(OC(F)F)c(N3C[C@H]4CCCN[C@H]4C3)c(F)cc2c1=O [Embodiment 14, 1-cyclopropyl-8-difluoromethoxyl-7-[(1R,6R)-2,8-diazabicyclo[4,3,0]nonane-8-yl]-6-fluoro-1,4-dihydro-4-oxoquinoline-3-carboxylic acid hydrochloride] |  | 0.01 |  |  | 0.01 |  |  |  |
| Cl.Nc1c(F)c(N2C[C@@H]3CCCN[C@@H]3C2)c(OC(F)F)c2c1c(=O)c(C(=O)O)cn2C1CC1 [Embodiment 17, 5-amino-1-cyclopropyl-8-difluoromethoxyl-7-[(1S,6S)-2,8-diazabicyclo[4,3,0]nonane-8-yl]-6-fluoro-1,4-dihydro-4-oxoquinoline-3-carboxylic acid hydrochloride] |  | 0.01 | 0.01 | 0.01 | 0.01 | 0.01 | 0.01 | 0.01 |
| Cl.Nc1c(F)c(N2C[C@H]3CCCN[C@H]3C2)c(OC(F)F)c2c1c(=O)c(C(=O)O)cn2C1CC1 [Embodiment 18, 5-Amino-1-cyclopropyl-8-difluoromethoxyl-7-[(1R,6R)-2,8-diazabicyclo[4,3,0]nonane-8-yl]-6-fluoro-1,4-dihydro-4-oxoquinoline-3-carboxylic acid hydrochloride] |  | 0.12 | 0.01 | 0.01 | 0.01 |  | 0.01 |  |
